Here are results for 2 molecules from ChEMBL document CHEMBL3272338, “Bis-basic-substituted polycyclic aromatic compounds. A new class of antiviral agents. 8. Bis-basic derivatives of carbazole, dibenzofuran, and dibenzothiophene” (1977).

Experiment [1] deals with Encephalomyocarditis virus. In words: Antiviral activity against Encephalomyocarditis virus infected in CF-1 mouse assessed as host survival time ratio at 10 mg/kg, sc administered 28, 22, 2 hrs before and 2 hrs after virus inoculation. Particulars: route subcutaneous. Format: functional.
In experiment [2] the test system is Encephalomyocarditis virus. In words: Antiviral activity against Encephalomyocarditis virus infected in CF-1 mouse assessed as host survival time ratio at 50 mg/kg, sc administered 28, 22, 2 hrs before and 2 hrs after virus inoculation. In kind it is functional. The note with it: route subcutaneous.
Experiment [3] concerns Encephalomyocarditis virus. In words: Antiviral activity against Encephalomyocarditis virus infected in CF-1 mouse assessed as host survival time ratio at 250 mg/kg, sc administered 28, 22, 2 hrs before and 2 hrs after virus inoculation. Format: functional. The note with it: route subcutaneous.
The test system of experiment [4] is Encephalomyocarditis virus. In words: Antiviral activity against Encephalomyocarditis virus infected in CF-1 mouse assessed as host survival time ratio at 50 mg/kg, po administered via gavage at 28, 22, 2 hrs before and 2 hrs after virus inoculation. In kind it is functional.
Experiment [5] deals with Encephalomyocarditis virus. In words: Antiviral activity against Encephalomyocarditis virus infected in CF-1 mouse assessed as host survival time ratio at 250 mg/kg, po administered via gavage as single dose at 22 to 28 hrs before virus inoculation. In kind it is functional.
For experiment [6], the system named is Human alphaherpesvirus 1. In words: In vitro antiviral activity against Herpesvirus hominis type 1 infected in African green monkey Vero cells assessed as log reduction of virus titer by cytopathologic assay (reference value: 5). Format: functional.
Experiment [7] has as its system Human alphaherpesvirus 1. In words: In vivo antiviral activity against Herpesvirus hominis type 1 infected in po dosed white mouse assessed as suppression of raised, blister-like lesions. Format: functional, organism-based.
Experiment [8] has as its system Human alphaherpesvirus 1. In words: In vivo antiviral activity against Herpesvirus hominis type 1 infected in hairless mouse assessed as suppression of ulcerated zoster-like lesions development administered topically at 2, 4 and 6 hrs after virus inoculation followed by continuous treatment daily for 4 days four times a day at 2 hrs interval measured on 8th day post-infection. In kind it is functional, organism-based.

Experiment [9] has as its system Human alphaherpesvirus 1. In words: In vivo antiviral activity against Herpesvirus hominis type 1 infected in hairless mouse assessed as decrease in lesion score administered topically at 2, 4 and 6 hrs after virus inoculation followed by continuous treatment daily for 4 days four times a day at 2 hrs interval measured on 8th day post-infection. Format: functional, organism-based.

Experiment [10] has as its system Mus musculus. In words: Induction of interferon induction in po dosed mouse serum. In kind it is functional, organism-based.
The test system of experiment [11] is Mus musculus. In words: Induction of interferon induction in sc dosed mouse serum. In kind it is functional, organism-based.
The test system of a further experiment is Semliki Forest virus. In words: Antiviral activity against Semliki forest virus infected in mouse. In kind it is functional, organism-based.
Another experiment concerns Vaccinia virus. In words: Antiviral activity against Vaccinia virus infected in mouse. Particulars: Orthopoxvirus vaccinia. Format: functional, organism-based.
Experiment [12] deals with Venezuelan equine encephalitis virus. In words: Antiviral activity against Venezuelan equine encephalitis virus infected in po dosed monkey assessed as reduction in viremia. In kind it is functional, organism-based.
For experiment [13], the system named is Influenza A virus. In words: Antiviral activity against Influenza A virus A2 Jap/305 infected in mouse. In kind it is functional, organism-based.
For experiment [14], the system named is Influenza A virus. In words: Antiviral activity against Influenza A virus A0 (Pr8) infected in mouse. Format: functional, organism-based.

The source made the active and inactive calls. The calls are words filed in the database; no cut-off is given here.

Regarding `CN(C)CC(=O)c1ccc2oc3ccc(C(=O)CN(C)C)cc3c2c1.Cl`, the Ratio is listed as 1.13 in experiment [1]; 1.64 in [2]; 2 in [3]; 1.8 in experiment [4]; 2.2 in experiment [5]. For the same molecule, the “log(activity)” value in the experiment with Human alphaherpesvirus 1 [6] was found to be 2.5. Also, the inhibition result in the experiment with Human alphaherpesvirus 1 [7] and in the experiment on Human alphaherpesvirus 1 [8] was “inactive” throughout. Also, the inhibition result (with Human alphaherpesvirus 1 [9]; in experiment [12]) was “Active” in each case. Besides, the outcome with Mus musculus [10], in the experiment on Mus musculus [11], in the experiment on Semliki Forest virus and in the experiment with Vaccinia virus was Active.
Regarding `CN(C)CC(=O)c1ccc2sc3ccc(C(=O)CN(C)C)cc3c2c1.Cl`, the Ratio in experiment [1] came to 1.1; in [2], 2.29; in experiment [3], 2.29; in experiment [4] it was 1.75; in [5], 2.29. Also, the “log(activity)” value in the experiment with Human alphaherpesvirus 1 [6] is 2.5. The inhibition result with Human alphaherpesvirus 1 [7] and with Human alphaherpesvirus 1 [8] was “inactive” each time. In addition, the inhibition entry (with Human alphaherpesvirus 1 [9]; in experiment [12]) was “Active” in each case. For the same molecule, the result with Mus musculus [10], in the experiment with Mus musculus [11], with Semliki Forest virus, in the experiment with Vaccinia virus, in the experiment on Influenza A virus [13] and in the experiment on Influenza A virus [14] was Active.
